# Results published in patent US20180296456A1, “Decapeptide-12 Modulation of Sirtuin Gene Expression in Epidermal Keratinocyte Progenitors” (Escape Therapeutics, Inc., priority 2017, published 2018).
# How the values were obtained:
# Format in all cases: cell-based
# SIRT6 = SIRT6 transcription, semi-quantitative RT-PCR in human epidermal progenitors; conditions: 72 h
# Experimental: (§1) Human neonatal epidermal progenitors (Thermo Fisher Scientific, NY) were seeded in 6-well plates at a density of 2×10^5 cells/well. Each well received 2 ml of Epilife media containing 60 μM calcium chloride (Thermo Fisher Scientific, NY). Plates were incubated in a humidified chamber at 37 degrees Celsius and 5 percent CO2. Twenty-four hours later, cells were treated with various concentrations of oxyresveratrol or decapeptide-12 dissolved in PBS containing 5 percent DMSO. Control wells received vehicle only (5 percent DMSO and PBS). Final concentration of DMSO in each well was 0.05 percent.
# (§2) After a 72 hour incubation period, cells were trypsinized and total RNA extracted, using RNeasy kit (Qiagen, Valencia, Calif.) according to the manufacturer's protocol.
# (§3) RNA concentration was determined using nanodrop (Thermo fisher scientific, NY). Two μg of total RNA were used to synthesize cDNA using oligo dT primers and TaqMan reverse transcription reagents (Thermo fisher scientific, NY). The reaction was carried out in DNA Engine Peltier Thermal Cycler (Bio-Rad, Hercules, Calif.). The annealing temperature was 25 degrees Celsius for 10 minutes, followed by first strand synthesis at 48 degrees Celsius for 1 hour, and heat inactivation at 95 degrees Celsius for 5 minutes.
# (§4) The SIRT1-7 primers (table 1) were designed using Primer3. The semi-quantitative PCR reactions were performed on a DNA Engine Peltier Thermo Cycler (Bio-Rad, Hercules, Calif.). PCR was carried under the following conditions: denaturation at 94 degrees Celsius for 2 minutes and primer extension at 54 degrees Celsius for 30 seconds in 34 cycles for SIRT 1-7 and the housekeeping gene 18S.
# (§5) Samples were run and resolved on a 1.5 percent agarose gel containing 0.5 μg/ml of ethidium bromide and imaged using the FluorChem HD2 Imaging System (Protein simple, San Jose, Calif.). Densitometry analysis was carried out using the AlphaEase FC software (Protein simple, San Jose, Calif.). Intensity ratios were calculated as the intensity value for each gene divided by the intensity value of the internal control gene 18S.
# (§6) The effect of the decapeptides P4, P4A, P4B, and P4C upon the transcription levels of sirtuins 1-7 was evaluated. Table 4 summarizes transcription levels for all four decapeptides with the corresponding genes, at tested concentrations of: 10, 30, 50, 100, and 300 (all in μM).
# [1] = test system: human epidermal progenitors; test: Trypan blue dye exclusion cytotoxicity assay, 72 h, epidermal progenitors; conditions: human, 72 h
# Experimental: Cellular toxicity was measured using a trypan blue dye exclusion assay. Cells were cultured in 6-well plates at a density of 4×10^5 cells/well. Each well received a different concentration of decapeptide-12 or oxyresveratrol (0, 3, 10, 30, 100, 300, and 1000 μM). Plates were incubated at 37 degrees Celsius in a humidified 5 percent CO2 chamber. After 72 h, an aliquot was taken and cells counted using a hemacytometer. Cytotoxicity was measured according to the following formula: [1−(# of cells in control−# of live cells in test sample)/# of cells in control]×100 percent.
# SIRT1 = SIRT1 transcription, semi-quantitative RT-PCR in human epidermal progenitors; conditions: 72 h
# Experimental: as §1, §2, §3, §4, §5, §6
# SIRT2 = SIRT2 transcription, semi-quantitative RT-PCR in human epidermal progenitors; conditions: 72 h
# Experimental: as §1, §2, §3, §4, §5, §6
# [2] = test system: human epidermal progenitors; test: in vitro; conditions: 72 h
# Experimental: Proliferation rates were determined using a TACS® MTT Cell Proliferation Kit (R&D systems, Minneapolis, Minn.). Cells were seeded at 2.5×10^4/well in 96-well plates in a humidified atmosphere with 5 percent CO2 at 37 degrees Celsius. Twenty-four hours later, decapeptide-12 or oxyresveratrol were added to the corresponding wells at varying concentrations (0, 3, 10, 30, 100, 300, and 1000 μM), and cultures were then incubated for 72 hours. The remainder of the procedure was performed following the manufacturer's protocol.
# Proliferation rates for three human cell lines (epidermal progenitors, melanoblasts, and fibroblasts) were determined using a TACS® MTT Cell Proliferation Kit. Cells were seeded at 2.5×10^4/well in 96-well plates in a humidified atmosphere with 5 percent CO2 at 37 degrees Celsius. Twenty-four hours later, the decapeptides were added to the corresponding wells at varying concentrations and incubated for 72 hours. The remainder of the procedure was performed following the manufacturer's protocol.
# SIRT4 = SIRT4 transcription, semi-quantitative RT-PCR in human epidermal progenitors; conditions: 72 h
# Experimental: as §1, §2, §3, §4, §5, §6
# SIRT3 = SIRT3 transcription, semi-quantitative RT-PCR in human epidermal progenitors; conditions: 72 h
# Experimental: as §1, §2, §3, §4, §5, §6
# SIRT5 = SIRT5 transcription, semi-quantitative RT-PCR in human epidermal progenitors; conditions: 72 h
# Experimental: as §1, §2, §3, §4, §5, §6
# SIRT7 = SIRT7 transcription, semi-quantitative RT-PCR in human epidermal progenitors; conditions: 72 h
# Experimental: as §1, §2, §3, §4, §5, §6
structure (smiles),measurement,setting,value
"Oc1cc(O)cc(/C=C/c2ccc(O)cc2O)c1 [oxyresveratrol, Oxyresveratrol, reference compound]",SIRT6 transcription increase relative to control,SIRT6; 3 μM,6.1 ± 1%
same,SIRT6 transcription increase relative to control,SIRT6; 10 μM,34 ± 5.5%
same,SIRT6 transcription increase relative to control,SIRT6; 30 μM,73±8%
same,SIRT6 transcription increase relative to control,"SIRT6; 30 μM, listed as Oxy",73 ± 8.1%
same,SIRT6 transcription increase relative to control,SIRT6; 50 μM,81.3 ± 8.1%
same,SIRT6 transcription increase relative to control,SIRT6; 100 μM,82.4 ± 8.4%
same,SIRT6 transcription increase relative to control,SIRT6; 300 μM,87.4 ± 9.3%
same,SIRT6 transcription increase relative to control,SIRT6; 500 μM,81.2 ± 12.4%
same,SIRT6 transcription increase relative to control,SIRT6; 1000 μM,75 ± 15.1%
same,cell death,[1]; 100 μM,6±1%
same,cell death,[1]; 1 mM,16±2%
same,SIRT1 transcription increase relative to control,SIRT1; 3 μM,8.7 ± 1%
same,SIRT1 transcription increase relative to control,SIRT1; 10 μM,45 ± 7.7%
same,SIRT1 transcription increase relative to control,SIRT1; 30 μM,125±9%
same,SIRT1 transcription increase relative to control,"SIRT1; 30 μM, listed as Oxy",124.5 ± 8.6%
same,SIRT1 transcription increase relative to control,SIRT1; 50 μM,166 ± 14.5%
same,SIRT1 transcription increase relative to control,SIRT1; 100 μM,187 ± 16.6%
same,SIRT1 transcription increase relative to control,SIRT1; 300 μM,187 ± 15.4%
same,SIRT1 transcription increase relative to control,SIRT1; 500 μM,176 ± 10%^
same,SIRT1 transcription increase relative to control,SIRT1; 1000 μM,175 ± 9%
same,SIRT2 transcription increase relative to control,SIRT2; 3 μM,7.9 ± 2%
same,SIRT2 transcription increase relative to control,SIRT2; 10 μM,14.9 ± 1.9%
same,SIRT2 transcription increase relative to control,SIRT2; 30 μM,43.1 ± 2.4%
same,SIRT2 transcription increase relative to control,SIRT2; 50 μM,56.3 ± 7.7%
same,SIRT2 transcription increase relative to control,SIRT2; 100 μM,41.2 ± 8.1%
same,SIRT2 transcription increase relative to control,SIRT2; 300 μM,39 ± 9.3%
same,SIRT2 transcription increase relative to control,SIRT2; 500 μM,33.1 ± 12.4%
same,SIRT2 transcription increase relative to control,SIRT2; 1000 μM,31.2 ± 12.3%
same,reduced cell proliferation,[2]; 300 μM,5±1%
same,reduced cell proliferation,[2]; 1 mM,12±2%
same,SIRT4 transcription increase relative to control,SIRT4; 3 μM,8.1 ± 1%
same,SIRT4 transcription increase relative to control,SIRT4; 10 μM,12.4 ± 2.1%
same,SIRT4 transcription increase relative to control,SIRT4; 30 μM,49 ± 6.7%
same,SIRT4 transcription increase relative to control,SIRT4; 50 μM,52.1 ± 6.6%
same,SIRT4 transcription increase relative to control,SIRT4; 100 μM,64.1 ± 7.4%
same,SIRT4 transcription increase relative to control,SIRT4; 300 μM,67 ± 8.7%
same,SIRT4 transcription increase relative to control,SIRT4; 500 μM,61.2 ± 8.8%
same,SIRT4 transcription increase relative to control,SIRT4; 1000 μM,71.3 ± 9.2%
same,SIRT3 transcription increase relative to control,SIRT3; 3 μM,10 ± 3%
same,SIRT3 transcription increase relative to control,SIRT3; 10 μM,52.7 ± 5.1%
same,SIRT3 transcription increase relative to control,SIRT3; 30 μM,133±5%
same,SIRT3 transcription increase relative to control,"SIRT3; 30 μM, listed as Oxy",133 ± 4.8%
same,SIRT3 transcription increase relative to control,SIRT3; 50 μM,156 ± 9.2%
same,SIRT3 transcription increase relative to control,SIRT3; 100 μM,148 ± 7.3%
same,SIRT3 transcription increase relative to control,SIRT3; 300 μM,152.2 ± 9%
same,SIRT3 transcription increase relative to control,SIRT3; 500 μM,151 ± 8.1%
same,SIRT3 transcription increase relative to control,SIRT3; 1000 μM,151 ± 7.4%
same,SIRT5 transcription increase relative to control,SIRT5; 3 μM,7.1 ± 1%
same,SIRT5 transcription increase relative to control,SIRT5; 10 μM,12.3 ± 3%^
same,SIRT5 transcription increase relative to control,SIRT5; 30 μM,45.1 ± 4.3%
same,SIRT5 transcription increase relative to control,SIRT5; 50 μM,46 ± 4%
same,SIRT5 transcription increase relative to control,SIRT5; 100 μM,36.1 ± 6.7%
same,SIRT5 transcription increase relative to control,SIRT5; 300 μM,33.4 ± 7.1%
same,SIRT5 transcription increase relative to control,SIRT5; 500 μM,35.1 ± 8.1%
same,SIRT5 transcription increase relative to control,SIRT5; 1000 μM,37 ± 6.8%
same,SIRT7 transcription increase relative to control,SIRT7; 3 μM,6.3 ± 1%
same,SIRT7 transcription increase relative to control,SIRT7; 10 μM,65 ± 2.9%
same,SIRT7 transcription increase relative to control,SIRT7; 30 μM,95±7%
same,SIRT7 transcription increase relative to control,"SIRT7; 30 μM, listed as Oxy",95 ± 6.7%
same,SIRT7 transcription increase relative to control,SIRT7; 50 μM,114 ± 8.1%
same,SIRT7 transcription increase relative to control,SIRT7; 100 μM,132 ± 7.6%
same,SIRT7 transcription increase relative to control,SIRT7; 300 μM,168 ± 4.8%
same,SIRT7 transcription increase relative to control,SIRT7; 500 μM,177 ± 6.6%
same,SIRT7 transcription increase relative to control,SIRT7; 1000 μM,165 ± 5.1%
